Source: PMC7060200, “Selective Binding of HSC70 and its Co-Chaperones to Structural Hotspots on CFTR” (Scientific Reports, 2020)
“Also recorded” adds a separate entry of the source. Like-named read-outs stand apart in the source and are kept apart here. Ends that are not written are not given here. Peptide text beside a SMILES is read from it.

Legend:
DJA2 [1] = biological target: T1, DJA2 (Homo sapiens, UniProt O60884); assay: ELISA binding of DJA2 to immobilized biotinylated CFTR peptides; conditions: 2 μM DJA2, absence of ATP, immobilized 15-mer; n ≥ 3
T1 construct: made in house
T1 sequence (O60884 whole entry): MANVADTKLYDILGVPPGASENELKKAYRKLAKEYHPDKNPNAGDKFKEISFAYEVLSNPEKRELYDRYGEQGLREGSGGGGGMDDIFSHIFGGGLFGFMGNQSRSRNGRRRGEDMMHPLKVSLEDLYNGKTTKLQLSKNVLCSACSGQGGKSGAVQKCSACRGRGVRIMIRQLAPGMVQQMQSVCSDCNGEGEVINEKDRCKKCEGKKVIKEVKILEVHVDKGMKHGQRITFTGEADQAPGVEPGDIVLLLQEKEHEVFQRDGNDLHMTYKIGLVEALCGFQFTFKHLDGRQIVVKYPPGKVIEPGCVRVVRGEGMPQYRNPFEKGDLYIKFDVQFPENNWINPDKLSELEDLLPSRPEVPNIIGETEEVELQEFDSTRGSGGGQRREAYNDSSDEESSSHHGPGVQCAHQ
Protocol: (§1) HSC70, DJA1 and DJA2 were purified as His-tagged proteins, as described. HSC70 was also amplified by PCR with an N-terminal FLAG tag, inserted into pPROEXHTa (Invitrogen) and purified as described. HSC70 was stored in 100 mM KOAc, 20 mM HEPES-KOH pH 7.5, 5 mM MgOAC2 (buffer G), DJA1 and DJA2 in 500 mM NaCl, 20 mM HEPES-KOH pH 7.5, 5 mM MgOAC2 (buffer H). Avi-tagged CFTR NBD1 was purified as described.
(§2) The CFTR peptide library was designed as 15-mers with 10-residue overlaps covering the cytosolic sequences as in Fig. 1a and Supplemental Table S1. Synthetic peptides (Mimotopes, PepSet purity) contained an N-terminal biotin followed by linker sequence GSGS and the 15-mer sequence. […] Peptides were reconstituted in DMSO or water.
(§3) For peptide binding, streptavidin-coated black 96-well plates (Nunc Maxisorp, ThermoFisher) were pre-rinsed with PBS containing 0.05% Tween-20 (PBST), and 5 µM biotinylated peptides in 100 µl PBS were bound overnnight at 4 °C with agitation. Plates were washed with PBST and blocked with PBST containing 0.5% bovine serum albumin (BSA) for 1 h. After removal of blocking solution, 100 µl reactions containing chaperones at indicated concentrations were bound for 45 min at room temperature with agitation. HSC70 reactions were in buffer G containing 1 mM ATP, DJA1 and DJA2 reactions were in buffer H. For competition assays, chaperones and peptides were mixed at indicated concentrations immediately before the reactions were added to the plates. For detections, the plates were washed in PBST and 5 μM His-Probe-HRP conjugate (ThermoFisher) in 100 μL PBST added for 15 min with agitation. After washing in PBST, plates were developed using Amplex Red (ThermoFisher) according to manufacturer’s instructions, in a fluorescence plate reader (Tecan M1000).
(§4) Affinities were determined separately from binding curves and from competition curves. Data from binding of chaperones to immobilized peptides (Fig. 2a,b and Supplemental Fig. S2a–c) were fit to the equation 1/(1 − i) = (C/i)/Kd^B − b, where i is the relative saturation, C is the chaperone concentration (1 μM), Kd^B is the apparent dissociation constant from the binding data. In the plot of 1/(1 − i) against (C/i), the slope is 1/Kd^B, and −b is the intercept. […] In the plot of bi + (C/Kd^B)/i over D, the slope is 1/Kd^C, and e is the intercept. The amount of chaperone bound in the absence of competitor was set as i = 1.
(§5) Established statistical methods[71]–[73] were used to analyze the data for chaperone binding to the peptide library. First, biological and statistical outliers were identified with the Tukey method in two rounds, for biological and then statistical outliers. […] Binding data were represented as multiples of the standard deviations from the normal means. Binding in the presence of competitor peptides were shown as a fraction of binding in the absence of competitor, or the fraction competed calculated as 1 – fraction bound. Values were compared using a two-tailed unpaired Student’s t-test assuming unequal variance.

HSC70 [2] = biological target: T2, HSC70 (Homo sapiens, UniProt P11142); assay: Competition ELISA: soluble peptide vs HSC70 binding to immobilized 1097-L; conditions: for competition of HSC70 binding to immobilized 1097-L (in words): 1 μM HSC70, soluble peptide up to 100 μM
T2 construct: made in house
T2 sequence (P11142 whole entry): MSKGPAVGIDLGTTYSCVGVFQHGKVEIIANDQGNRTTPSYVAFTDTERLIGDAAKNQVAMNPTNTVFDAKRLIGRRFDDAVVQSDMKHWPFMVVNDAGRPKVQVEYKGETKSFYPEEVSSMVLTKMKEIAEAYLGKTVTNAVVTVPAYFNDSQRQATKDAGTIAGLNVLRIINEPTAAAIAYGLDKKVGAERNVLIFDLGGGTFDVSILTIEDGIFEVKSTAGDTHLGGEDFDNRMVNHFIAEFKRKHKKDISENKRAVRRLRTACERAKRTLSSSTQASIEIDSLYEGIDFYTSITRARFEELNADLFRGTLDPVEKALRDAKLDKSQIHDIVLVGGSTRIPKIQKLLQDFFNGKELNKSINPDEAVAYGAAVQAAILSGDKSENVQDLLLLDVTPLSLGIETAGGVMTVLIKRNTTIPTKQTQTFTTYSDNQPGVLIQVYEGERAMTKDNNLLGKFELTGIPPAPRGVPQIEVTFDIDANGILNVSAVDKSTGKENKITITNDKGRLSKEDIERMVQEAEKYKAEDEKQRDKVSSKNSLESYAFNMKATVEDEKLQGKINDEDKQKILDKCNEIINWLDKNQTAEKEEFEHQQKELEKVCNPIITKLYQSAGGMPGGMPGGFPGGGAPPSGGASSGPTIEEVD
Protocol: as §1, §2, §3, §4, §5

DJA2 [3] = biological target: T1, DJA2; assay: Competition ELISA: soluble peptide vs DJA2 binding to immobilized 1097-L; conditions: for competition of DJA2 binding to immobilized 1097-L (in words): 1 μM DJA2, soluble peptide up to 100 μM; for DJA2 binding site by competition screen (in words): 1 μM DJA2, 100 μM soluble peptide, Fig. 3c/5, cutoff twice SD of 733-L, n ≥ 4
Protocol: as §1, §2, §3, §4, §5

DJA1 [4] = biological target: T3, DJA1 (Homo sapiens, UniProt P31689); assay: ELISA binding of DJA1 to immobilized biotinylated CFTR peptides; conditions: 2 μM DJA1, absence of ATP, immobilized 15-mer; n ≥ 3
T3 construct: made in house
Protocol: as §1, §2, §3, §4, §5

DJA1 [5] = biological target: T3, DJA1; assay: Competition ELISA: soluble peptide vs DJA1 binding to immobilized 1097-L; conditions: for competition of DJA1 binding to immobilized 1097-L (in words): 1 μM DJA1, soluble peptide up to 100 μM
Protocol: as §1, §2, §3, §4, §5

HSC70 [6] = biological target: T2, HSC70; assay: ELISA binding of HSC70 to immobilized biotinylated CFTR peptides; conditions: for binding in peptide library screen, HSC70 (in words): 2 μM HSC70, with ATP, immobilized 15-mer, n ≥ 3
Protocol: as §1, §2, §3, §4, §5

| Compound | competition of HSC70 binding to immobilized 1097-L (in words) (HSC70 [2]) | competition of DJA2 binding to immobilized 1097-L (in words) (DJA2 [3]) | competition of DJA1 binding to immobilized 1097-L (in words) (DJA1 [5]) | other results |
| --- | --- | --- | --- | --- |
| 488-L: NBD1 15-mer 481-495 (KIKHSGRISFCSQFS; UniProt P13569 481-495, looked up, fragment) [Peptide 488-L] | competed poorly | competed poorly | competed poorly | binding in peptide library screen, DJA2 (in words) (DJA2 [1]): binding by DJA1, HSC70 and DJA2, in the original screen; binding in peptide library screen, DJA1 (in words) (DJA1 [4]): binding by DJA1, HSC70 and DJA2, in the original screen; binding in peptide library screen, HSC70 (in words) (HSC70 [6]): binding by DJA1, HSC70 and DJA2, in the original screen |
| 493-L: NBD1 15-mer 486-500 (GRISFCSQFSWIMPG; UniProt P13569 486-500, looked up, fragment) [Peptide 493-L] | competed poorly | competed poorly | competed poorly | binding in peptide library screen, DJA2 (in words) (DJA2 [1]): binding by DJA1, HSC70 and DJA2, in the original screen; binding in peptide library screen, DJA1 (in words) (DJA1 [4]): binding by DJA1, HSC70 and DJA2, in the original screen; binding in peptide library screen, HSC70 (in words) (HSC70 [6]): binding by DJA1, HSC70 and DJA2, in the original screen |
| CC[C@H](C)[C@H](NC(=O)[C@@H](NC(=O)[C@@H](NC(=O)[C@H](CS)NC(=O)[C@H](CC(=O)O)NC(=O)[C@H](C)NC(=O)[C@H](Cc1ccccc1)NC(=O)[C@H](C)NC(=O)[C@H](CCC(N)=O)NC(=O)[C@H](CCCCN)NC(=O)[C@H](CC(C)C)NC(=O)[C@@H](NC(=O)[C@@H](N)CCCNC(=N)N)[C@@H](C)O)[C@@H](C)O)C(C)C)C(=O)N[C@@H](CC(C)C)C(=O)N[C@@H](CS)C(=O)O [Peptide 1393-L] (H-RTLKQAFADCTVILC-OH) | competed all of the chaperones well | competed all of the chaperones well | competed all of the chaperones well | Kd (DJA2 [3]; read-out: Kd from competition curves, DJA2): 1.49 µM |
| CC[C@H](C)[C@H](NC(=O)[C@H](CCCNC(=N)N)NC(=O)[C@H](Cc1c[nH]cn1)NC(=O)[C@H](CCC(=O)O)NC(=O)[C@H](CS)NC(=O)[C@H](CC(C)C)NC(=O)[C@@H](NC(=O)[C@@H](NC(=O)[C@@H](N)[C@@H](C)O)C(C)C)[C@@H](C)CC)C(=O)N[C@@H](CCC(=O)O)C(=O)N[C@@H](C)C(=O)N[C@@H](CCSC)C(=O)N[C@@H](CC(C)C)C(=O)N[C@@H](CCC(=O)O)C(=O)N[C@@H](CS)C(=O)O [Peptide 1403-L] (H-TVILCEHRIEAMLEC-OH) | competed all of the chaperones well | competed all of the chaperones well | competed all of the chaperones well | Kd (DJA2 [3]): 0.995 µM |
| DLYLLDSPF [Peptide 571-S, NBD1 9-mer] | – | – | – | HSC70 binding site by competition screen (in words) (HSC70 [2]; 1 μM HSC70, 100 μM soluble peptide, Fig. 3c/5, cutoff twice SD of 733-L, n ≥ 4): bound only by DJA2; DJA2 binding site by competition screen (in words) (DJA2 [3]): bound only by DJA2; DJA1 binding site by competition screen (in words) (DJA1 [5]; 1 μM DJA1, 100 μM soluble peptide, Fig. 3c/5, cutoff twice SD of 733-L, n ≥ 4): bound only by DJA2 |
| EIFESCVCK [Peptide 589-S, NBD1 9-mer] | – | – | – | DJA2 binding site by competition screen (in words) (DJA2 [3]): DJA2 site |
| FGVIPQKVFIFSGTF [Peptide 1293-L] | Strong, essentially saturating competition; also recorded: only competed HSC70 | only competed HSC70 | only competed HSC70 | HSC70 concentration at which binding reached saturation (HSC70 [6]; titration on immobilized peptide, Fig. 2a, n ≥ 6): around 1 μM |
